Where a name gives a salt, the structure may show the parent alone.
melting point | SMILES
187 °C | CC(C)(O)c1cnn2c(-c3ccc(F)c(-c4ccccc4C#N)c3)cnc2n1 [Example 16, 2′-Fluoro-5′-[3-(1-hydroxy-1-methylethyl)imidazo[1,2-b][1,2,4]triazin-7-yl]biphenyl-2-carbonitrile]
233 to 237 °C | CC(C)(O)c1cnn2c(-c3ccc(F)c(-c4ccncc4)c3)cnc2n1 [Example 15, 2-{7-[4-Fluoro-3-(pyridin-4-yl)phenyl]imidazo[1,2-b][1,2,4]triazin-3-yl}propan-2-ol]
167 to 168 °C | N#Cc1ccccc1-c1cccc(-c2cnc3nc(C(F)(F)F)cnn23)c1F [Example 7, 2′-Fluoro-3′-(3-trifluoromethylimidazo[1,2-b][1,2,4]triazin-7-yl)biphenyl-2-carbonitrile]
221 to 223 °C | CC(C)(O)c1cnn2c(-c3cccc(-c4ccncc4)c3F)cnc2n1 [Example 19, 2-{7-[2-Fluoro-3-(pyridin-4-yl)phenyl]imidazo[1,2-b][1,2,4]triazin-3-yl}propan-2-ol]
199 to 200 °C | CC(C)(O)c1cnn2c(-c3ccc(F)c(-c4cccnc4)c3)cnc2n1 [Example 14, 2-{7-[4-Fluoro-3-(pyridin-3-yl)phenyl]imidazo[1,2-b][1,2,4]triazin-3-yl}propan-2-ol]
211 to 216 °C | Cc1cnn2c(-c3cccc(-c4ccccc4C#N)c3)cnc2n1 [Example 1, 3′-(3-methylimidazo[1,2-b][1,2,4]triazin-7-yl)biphenyl-2-carbonitrile]
166 °C | CC(C)(O)c1cnn2c(-c3cccc(-c4ccccc4C#N)c3)cnc2n1 [Example 22, 3′-[3-(1-Hydroxy-1-methylethyl)imidazo[1,2-b][1,2,4]triazin-7-yl]biphenyl-2-carbonitrile]
211 to 215 °C | N#Cc1ccccc1-c1cc(-c2cnc3nccnn23)ccc1F [Example 5, 2′-Fluoro-5′-(imidazo[1,2-b][1,2,4]triazin-7-yl)biphenyl-2-carbonitrile]
222 °C | CC(C)(O)c1cnn2c(-c3ccc(F)c(-c4ccc(F)cn4)c3)cnc2n1 [Example 29, 2-{7-[4-Fluoro-3-(5-fluoropyridin-2-yl)phenyl]imidazo[1,2-b][1,2,4]triazin-3-yl}propan-2-ol]
128 to 131 °C | Fc1ccc(-c2cnc3nc(C(F)(F)F)cnn23)cc1-c1ccccn1 [Example 6, 7-[4-Fluoro-3-(pyridin-2-yl)phenyl]-3-trifluoromethylimidazo[1,2-b][1,2,4]triazine]
168 to 174 °C | N#Cc1ccccc1-c1cc(-c2cnc3nc(C(F)(F)F)cnn23)ccc1F [Example 2, 2′-Fluoro-5′-(3-trifluoromethylimidazo[1,2-b][1,2,4]triazin-7-yl)biphenyl-2-carbonitrile]
187 to 188 °C | CC(C)(F)c1cnn2c(-c3ccc(F)c(-c4c(F)cccc4C#N)c3)cnc2n1 [Example 25, 6,2′-Difluoro-5′-[3-(1-fluoro-1-methylethyl)imidazo[1,2-b][1,2,4]triazin-7-yl]biphenyl-2-carbonitrile]
113 to 126 °C | CC(C)(F)c1cnn2c(-c3ccc(F)c(-c4cccnc4)c3)cnc2n1 (as salt: hydrochloride) [Example 3, 3-(1-Fluoro-1-methylethyl)-7-[4-fluoro-3-(pyridin-3-yl)phenyl]imidazo[1,2-b][1,2,4]triazine]
